In patent publication US20240150321A1, “PYRAZOLYLSULFONAMIDE COMPOUNDS AND THEIR USE IN THERAPY” (HOTSPOT THERAPEUTICS, INC., priority 2022, published 2024) one finds IC50 data, which are given here for 30 molecules.

Read-outs that look alike come from different tables or passages of the source.

The test system of assay [1] is NF-kB reporter in Jurkat cells. Put plainly: NF-kB reporter assay in Jurkat cells stimulated with aCD3/aCD28/PMA. In kind it is cell-based. Conditions: read-out: NF-kB Reporter Assay IC50. Summed up: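 Jurkat cells (25,000/well, serum-free RPMI) were pre-incubated 1 h at 37° C with serially diluted compound, then stimulated 4 h with aCD3/aCD28/PMA at final […]. NF-kB reporter activity was read by One-Glo luminescence; IC50 values reported.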

Assay [2] concerns the target Avi-tagged FL MALT-1 (Homo sapiens (Human), UniProt Q9UDY8). Put plainly: MALT-1 Fluorogenic Peptide Cleavage Assay (MALT1 inhibition assay). In kind it is biochemical. Conditions: Ac-LRSR-AMC peptide substrate, 30 min pre-incubation, 90 min reaction at room temperature. Summed up: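 Full-length Avi-tagged human MALT-1 (40 nM working stock) pre-incubated 30 min at RT with compound in 25 mM HEPES pH 6.89, 660 mM sodium citrate, 1 mM TCEP, […], 0.05% CHAPS, 2% DMSO. Ac-LRSR-AMC added at Km (50 μM working stock) or 10×Km (280 μM working stock); 90 min at RT, AMC fluorescence (ex 342/em 441 nm), IC50 from % inhibition curves.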

Setting [3] is: Homo sapiens, Jurkat cells, 1 hr compound pre-incubation, aCD3/aCD28/PMA stimulation 4 hr, One-Glo readout.

Chain of Avi-tagged FL MALT-1 (Q9UDY8 whole entry): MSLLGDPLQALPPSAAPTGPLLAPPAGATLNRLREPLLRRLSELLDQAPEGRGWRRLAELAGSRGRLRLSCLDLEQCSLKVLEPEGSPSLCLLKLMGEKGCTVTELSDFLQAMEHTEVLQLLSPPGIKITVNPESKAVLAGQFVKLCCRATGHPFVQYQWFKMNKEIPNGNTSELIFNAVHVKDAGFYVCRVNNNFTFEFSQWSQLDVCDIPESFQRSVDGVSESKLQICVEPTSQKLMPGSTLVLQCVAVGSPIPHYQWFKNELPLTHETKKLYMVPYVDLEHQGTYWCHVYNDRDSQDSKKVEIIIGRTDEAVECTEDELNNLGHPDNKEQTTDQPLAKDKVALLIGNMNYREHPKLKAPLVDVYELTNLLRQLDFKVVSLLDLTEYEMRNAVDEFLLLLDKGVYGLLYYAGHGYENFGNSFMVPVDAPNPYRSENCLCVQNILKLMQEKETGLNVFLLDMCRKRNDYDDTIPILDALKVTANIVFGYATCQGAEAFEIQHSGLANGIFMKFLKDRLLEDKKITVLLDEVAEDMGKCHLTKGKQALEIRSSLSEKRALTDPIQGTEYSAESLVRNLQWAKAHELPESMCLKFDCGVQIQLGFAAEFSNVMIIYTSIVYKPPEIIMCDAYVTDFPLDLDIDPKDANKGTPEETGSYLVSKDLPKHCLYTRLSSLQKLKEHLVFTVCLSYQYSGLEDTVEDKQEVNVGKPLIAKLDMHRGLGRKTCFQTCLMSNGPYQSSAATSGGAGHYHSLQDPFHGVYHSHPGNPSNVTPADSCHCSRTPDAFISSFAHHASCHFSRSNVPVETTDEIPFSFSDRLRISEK

Take `CN1CC[C@H](n2cc(S(=O)(=O)Nc3cccc4cnn(C)c34)cn2)CC1=O` [Compound I-415]: the IC50 in assay [1] (setting [3]) and in assay [2] was over 2500 nM each time.

`COc1ccc2cnn(C)c2c1NS(=O)(=O)c1cnn(-c2cc(C3(F)CCC3)ccn2)c1` [Compound I-144, 1-(4-(1-fluorocyclobutyl)pyridin-2-yl)-N-(6-methoxy-1-methyl-1H-indazol-7-yl)-1H-pyrazole-4-sulfonamide]: the IC50 in assay [1] (Homo sapiens, Jurkat) is under 400 nM; in assay [2], at most 400 nM.

As to `Cn1ncc2cccc(NS(=O)(=O)c3cnn(-c4cc(NC(C)(C)CO)ccn4)c3)c21` [Compound I-324, 1-(4-((1-Hydroxy-2-Methylpropan-2-yl)Amino)Pyridin-2-yl)-N-(1-Methyl-1H-Indazol-7-yl)-1H-Pyrazole-4-Sulfonamide], the IC50 was under 400 nM in assay [1] (setting [3]) and over 2500 nM in assay [2].

Consider `Cn1ncc2cccc(NS(=O)(=O)c3cnn(-c4cc(C5(F)CCC5)ccn4)c3)c21` [Compound I-94, 1-(4-(1-fluorocyclobutyl)pyridin-2-yl)-N-(1-methyl-1H-indazol-7-yl)-1H-pyrazole-4-sulfonamide], for which the IC50 in assay [1] (setting [3]) is under 400 nM; in assay [2], over 2500 nM.

For `Cn1ncc2ccc(C3CC3)c(NS(=O)(=O)c3cnn(-c4cncc(C(F)(F)F)c4)c3)c21` [Compound I-18], the figures for the IC50 in assay [1] (setting [3]) and in assay [2] were 400 to 1000 nM and at most 400 nM, respectively.

As to `COc1ccc2cnn(C)c2c1NS(=O)(=O)c1cnn(-c2cc(N3CC(OC)C3)ccn2)c1` [Compound I-445], the 50% inhibitory concentration (IC50) in assay [1] (setting [3]) is under 400 nM; in assay [2], over 2500 nM.

On to `Cc1cc(NS(=O)(=O)c2cnn(-c3ccnc(C(F)(F)F)c3)c2)c2c(cnn2C)c1` [Compound I-49, N-(1,5-Dimethyl-1H-Indazol-7-yl)-1-(2-(Trifluoromethyl) Pyridin-4-yl)-1H-Pyrazole-4-Sulfonamide], for which the IC50 in assay [1] (setting [3]) and in assay [2] was over 2500 nM in each case.

As for `COc1ccc2cnn(C)c2c1NS(=O)(=O)c1cnn(-c2cc(C(C)OC)ccn2)c1` (single isomer, unassigned) [Compound I-290, N-(6-methoxy-1-methyl-1H-indazol-7-yl)-1-(4-(1-methoxyethyl)pyridin-2-yl)-1H-pyrazole-4-sulfonamide], the figures for the IC50 in assay [1] (setting [3]) and in assay [2] were under 400 nM and at most 400 nM, respectively.

For `Cn1ncc2cccc(NS(=O)(=O)c3cnn(-c4ccnc(C5CC5)c4)c3)c21` [Compound I-75, 1-(2-Cyclopropylpyridin-4-yl)-N-(1-Methyl-1H-Indazol-7-yl)-1H-Pyrazole-4-Sulfonamide], the IC50 is 400 to 1000 nM in assay [1] (setting [3]) and over 2500 nM in assay [2].

Take `[2H]C([2H])([2H])n1ncc2ccc(OC)c(NS(=O)(=O)c3cnn(-c4cc(C(C)(F)F)ccn4)c3)c21` [Compound I-412, 1-(4-(1,1-Difluoroethyl)Pyridin-2-yl)-N-(6-Methoxy-1-(Methyl-D3)-1H-Indazol-7-yl)-1H-Pyrazole-4-Sulfonamide]: the IC50 in assay [1] (setting [3]) is under 400 nM; in assay [2] it was at most 400 nM.

`COc1ccc2cn(C)nc2c1NS(=O)(=O)c1cnn(-c2ccnc(C(F)(F)F)c2)c1` [Compound I-50, N-(6-Methoxy-2-Methyl-2H-Indazol-7-yl)-1-(2-(Trifluoromethyl)Pyridin-4-yl)-1H-Pyrazole-4-Sulfonamide]: the figures for the half-maximal inhibitory concentration (IC50) in assay [1] (setting [3]) and in assay [2] were over 2500 nM and 400 to 1000 nM, respectively.

Take `COc1ncc2cnn(C)c2c1NS(=O)(=O)c1cnn(-c2cc(N3CCC(F)(F)C3)ccn2)c1` [Compound I-428, 1-(4-(3,3-difluoropyrrolidin-1-yl)pyridin-2-yl)-N-(6-methoxy-1-methyl-1H-pyrazolo[4,3-c]pyridin-7-yl)-1H-pyrazole-4-sulfonamide]: the figures for the IC50 in assay [1] (setting [3]) and in assay [2] were under 400 nM and 400 to 1000 nM, respectively.

In the case of `Cn1ncc2cccc(NS(=O)(=O)c3cnn(-c4cc(N5CC6CC6C5)ccn4)c3)c21` (stereo not drawn) [Compound I-375, 1-(4-(3-Azabicyclo[3.1.0]Hexan-3-yl)Pyridin-2-yl)-N-(1-Methyl-1H-Indazol-7-yl)-1H-Pyrazole-4-Sulfonamide], the IC50 is under 400 nM in assay [1] (setting [3]) and over 2500 nM in assay [2].

In the case of `Cn1ncc2cccc(NS(=O)(=O)c3cnn(-c4cc(C5CC5)ccn4)c3)c21` [Compound I-76, 1-(4-Cyclopropylpyridin-2-yl)-N-(1-Methylindazol-7-yl)Pyrazole-4-Sulfonamide], the concentration for half-maximal inhibition (IC50) in assay [1] (setting [3]) is under 400 nM; in assay [2] it was 1000 to 2500 nM.

For `Cn1ncc2cccc(NS(=O)(=O)c3cnn([C@H]4CCCN(CC(F)(F)F)C4)c3)c21` [Compound I-329], the IC50 was 1000 to 2500 nM in assay [1] (setting [3]) and over 2500 nM in assay [2].

With `COc1ccc2cnn(C)c2c1NS(=O)(=O)c1cnn(-c2cc(C(F)(F)F)ccn2)c1C` [Compound I-84, N-(6-Methoxy-1-Methyl-1H-Indazol-7-yl)-5-Methyl-1-(4-(Trifluoromethyl)Pyridin-2-yl)-1H-Pyrazole-4-Sulfonamide], the IC50 in assay [1] (setting [3]) is under 400 nM; in assay [2] it was at most 400 nM.

Consider `Cn1ncc2cccc(NS(=O)(=O)c3cnn(-c4cc(N5CC(C)(F)C5)ccn4)c3)c21` [Compound I-440, 1-[4-(3-fluoro-3-methylazetidin-1-yl)pyridin-2-yl]-N-(1-methylindazol-7-yl)pyrazole-4-sulfonamide], for which the IC50 was under 400 nM in assay [1] (setting [3]) and over 2500 nM in assay [2].

`Cc1n[nH]c2cccc(N(C)S(=O)(=O)c3cnn(-c4ccnc(C(F)(F)F)c4)c3)c12` [Compound I-64, N-Methyl-N-(3-Methyl-1H-Indazol-4-yl)-1-(2-(Trifluoromethyl)Pyridin-4-yl)-1H-Pyrazole-4-Sulfonamide]: the IC50 is over 2500 nM in assay [1] (setting [3]) and 1000 to 2500 nM in assay [2].

As for `COc1ccc2cnn(C)c2c1NS(=O)(=O)c1cnn(-c2cc(N3CCCCC3)ccn2)c1` [Compound I-372], the IC50 was under 400 nM in assay [1] (setting [3]) and 1000 to 2500 nM in assay [2].

For the molecule `CCc1ccc2cnn(C)c2c1NS(=O)(=O)c1cnn(-c2ccnc(OC(F)(F)F)c2)c1` [Compound I-61, N-(6-Ethyl-1-Methyl-1H-Indazol-7-yl)-1-(2-(Trifluoromethoxy) Pyridin-4-yl)-1H-Pyrazole-4-Sulfonamide], the IC50 in assay [1] (setting [3]) and in assay [2] was 1000 to 2500 nM throughout.

On to `COc1ccc2cnn(C)c2c1NS(=O)(=O)c1cnn(-c2cc(C(C)OC)ccn2)c1` (single isomer, unassigned) [Compound I-291, N-(6-methoxy-1-methyl-1H-indazol-7-yl)-1-(4-(1-methoxyethyl)pyridin-2-yl)-1H-pyrazole-4-sulfonamide], for which the IC50 in assay [1] (Jurkat cells, 1 hr compound pre-incubation, aCD3/aCD28/PMA stimulation 4 hr, One-Glo readout) was under 400 nM; in assay [2], at most 400 nM.

For `COc1ccc2cnn(C)c2c1NS(=O)(=O)c1cnn(-c2cc([C@@H](C)N3CCCCC3)ccn2)c1` [Compound I-463], the values for the IC50 in assay [1] (setting [3]) and in assay [2] were 400 to 1000 nM and over 2500 nM, respectively.

For the molecule `Cc1ccc2[nH]nc(C)c2c1NS(=O)(=O)c1cnn(-c2cc(C(F)(F)F)ccn2)c1` [Compound I-67], the IC50 in assay [1] (setting [3]) is under 400 nM; in assay [2], at most 400 nM.

For `CN1CC(O)(c2ccnc(-n3cc(S(=O)(=O)Nc4cccc5cnn(C)c45)cn3)c2)C1` [Compound I-344], the IC50 in assay [1] (setting [3]) and in assay [2] was over 2500 nM in each case.

Regarding `O=S(=O)(c1cnn(-c2cc(C(F)(F)F)ccn2)c1)N1CCCc2ccc3cn[nH]c3c21` [Compound I-393, 9-((1-(4-(trifluoromethyl)pyridin-2-yl)-1H-pyrazol-4-yl)sulfonyl)-6,7,8,9-tetrahydro-1H-pyrazolo[4,3-h]quinoline], the IC50 in assay [1] (setting [3]) and in assay [2] was over 2500 nM in each case.

As to `Cc1n[nH]c2cccc(N(C)S(=O)(=O)c3cnn(-c4cc(C(F)(F)F)ccn4)c3)c12` [Compound I-65, N-Methyl-N-(3-Methyl-1H-Indazol-4-yl)-1-(4-(Trifluoromethyl)Pyridin-2-yl)-1H-Pyrazole-4-Sulfonamide], the IC50 in assay [1] (setting [3]) and in assay [2] was 400 to 1000 nM in each case.

Regarding `COCC(COC)(OC)c1ccnc(-n2cc(S(=O)(=O)Nc3cccc4cnn(C)c34)cn2)c1` [Compound I-259, N-(1-methyl-1H-indazol-7-yl)-1-(4-(1,2,3-trimethoxypropan-2-yl)pyridin-2-yl)-1H-pyrazole-4-sulfonamide], the IC50 is 1000 to 2500 nM in assay [1] (setting [3]) and over 2500 nM in assay [2].

For `COC1CC(c2ccnc(-n3cc(S(=O)(=O)Nc4cccc5cnn(C)c45)cn3)c2)C1` (stereo not drawn) [Compound I-399, 1-(4-(3-methoxycyclobutyl)pyridin-2-yl)-N-(1-methyl-1H-indazol-7-yl)-1H-pyrazole-4-sulfonamide], the concentration for half-maximal inhibition (IC50) was under 400 nM in assay [1] (setting [3]) and over 2500 nM in assay [2].

For the molecule `COC1(C)CN(c2ccnc(-n3cc(S(=O)(=O)Nc4cccc5cnn(C)c45)cn3)c2)C1` [Compound I-446, 1-[4-(3-methoxy-3-methylazetidin-1-yl)pyridin-2-yl]-N-(1-methylindazol-7-yl)pyrazole-4-sulfonamide], the figures for the IC50 in assay [1] (setting [3]) and in assay [2] were under 400 nM and over 2500 nM, respectively.

For the molecule `O=S(=O)(Nc1cccc2cnn(C(F)F)c12)c1cnn(-c2cc(Cl)ccn2)c1` [Compound I-110, 1-(4-chloropyridin-2-yl)-N-[1-(difluoromethyl)indazol-7-yl]pyrazole-4-sulfonamide], the IC50 in assay [1] (setting [3]) and in assay [2] was over 2500 nM each time.
